Key:
[1] = Chemical stability test (HPLC purity); settings: for chemical stability compared to known compounds / 1 month Other peaks (%) / 1 month Parent peak (%) / change of purity (in words): 1 month at 40±2° C.; for chemical stability compared to known compounds / 1 month Other peaks (%) / 1 month Parent peak (%) / change of purity (%) / change of purity (in words): 75±5% relative humidity; for 1 month Other peaks (%) / 1 month Parent peak (%) / Initial Other peaks (%) / Initial Parent peak (%): HPLC; for 1 month Other peaks (%) / 1 month Parent peak (%): air-tight vessel; for change of purity (%): initial vs 1 month at 40±2° C.
Protocol: Each compound of the present invention was kept in an air-tight vessel for 1 month at 40±2° C. and 75±5% of relative humidity. Thereafter the HPLC purity test was executed.
25 mL of the solution was precisely taken, and poured into 100 mL volumetric flask. Acetonitrile/20 mM ammonium acetate aqueous solution (50:50) was added thereto to be the total volume of 100 ml. The solution was filtrated, and the filtrate was used as a test liquid.
(2) Operational Condition of Instrument. • Column: Kromasil®C18 (UG 100 Å, 5 μm, 4.6 mm Φ×250 mm) • Column temperature: 30° C. • Mobil phase: 20 mM ammonium acetate (pH 4.2) buffer:acetonitrile (55:45) • Injection volume: 20 μL • Flow rate: 1.2 mL/min • Detector: UV light-absorption Spectrophotometer (detection wavelength: 306 nm)

[2] = tested on: HUVEC (human umbilical vein endothelial cell); experiment: Inhibiting activity on cell proliferation, SRB analysis (HUVEC); format: cell-based; settings: Homo sapiens, 72 h, HUVEC cells, 3 days with drug
Protocol: (§1) In order to compare the safety index (SI) of CPAE (calf pulmonary artery endothelial cell) with that of HUVEC (human umbilical vein endothelial cell), L5178Y lymphoma that was isolated from murine thymus was used. The safety index was defined as IC50 ratio of L5178Y against CPAE (IC50L5178Y/IC50CPAE). All cell lines, which had been kept in liquid nitrogen tank, were used after being thawed and subcultured 2˜3 times in T-flask. CPAE, HUVEC and L5178Y were cultured in MEM culture medium (20% FBS, 50˜100 μg/ml ECGS, 0.15% baking soda, 0.05 mg/ml gentamicin), M199 culture medium (20% FBS, 0.22% baking soda, 100 μg/ml heparin, 3 ng/ml bFGF, 0.05 mg/ml gentamicin) and RPMI 1640 culture medium (10% FBS, 0.2% baking soda, 0.05 mg/ml gentamicin), respectively, under the condition of 37° C. and 5% CO2.
(§2) The drug was prepared by being gradationally diluted to two or ten times by using PBS, 20 μl of the solution was added to each well of 96 well plate in triplicate. The cell, which is being incubated, was treated with trypsin to give cell suspension. The number of cell thereafter was counted. And 180 μl of the solution was inoculated to each well and cultured.
(§3) The cell was cultured with drugs for 3 days and then 50 μl of 50% TCA was added thereto (final concentration 10%). Subsequently the cell was fixed by being left alone at 4° C. for 1 hour. The well was washed 4 times by distilled water and then dried. After that 100 μl of SRB (Sulforhodamine B, Sigma Chemical Co.) solution (0.4% w/v in 1% acetic acid) was added thereto and then it was left alone at ordinary temperature for 30 minutes. Thereafter the well was washed 4 times by 1% acetic acid and dried. And then after adding 200 μl of 10 mM tris buffer, the absorbance at 570 nm was measured by automatic microplate reader (Model: Elx 808, Bio-Tek Instrument, INC). The viability was calculated from the ratio of the absorbance of the control to which drugs were not added and the well to which drugs were added.

L5178Y lymphoma = experiment: Inhibiting activity on cell proliferation, MTT analysis (L5178Y); format: cell-based, murine; settings: Mus musculus, 72 h, L5178Y lymphoma cells, 3 days with drug
Protocol: as §1, §2
The tumor cell was cultured with drugs for 3 days and then 50 μl of MTT (3-(4,5-dimethylthiazole-2-yl)-2,5-diphenyl tetrazolium bromide, Sigma Chemical Co.) solution (2.5 mg/ml in PBS) was added thereto. And it was further cultured for 4 hours at 37° C. Culture medium was removed carefully. And after dissolving formazan crystal by adding 150 μl of DMSO, the absorbance at 570 nm was determined.

Solubility test = format: physicochemical; settings: ordinary temperature
Protocol: To a constant amount (400 mg) of each compounds of present invention, a constant amount of demineralized water, methanol and ethanol were added separately, and the solution was stirred at ordinary temperature.

[3] = tested on: CPAE (calf pulmonary artery endothelial cell); experiment: Inhibiting activity on cell proliferation, SRB analysis (CPAE); format: cell-based; settings: for IC50: Bos taurus, Endothelial cell, 72 h, CPAE cells, 3 days with drug, SRB, read-out: IC50 (nM) CAPE; for Selectivity Index (L5178Y/CAPE): IC50 L5178Y / IC50 CPAE
Protocol: as §1, §2, §3

SMILES	chemical stability compared to known compounds [1]	1 month Other peaks (%) [1] [%]	1 month Parent peak (%) [1] [%]	Initial Other peaks (%) [1] [%]	Initial Parent peak (%) [1] [%]	change of purity (%) [1] [%]	IC50 [2] [nM]	IC50 (L5178Y lymphoma) [nM]	The amount of solvent to dissolve 1 g of the compounds (ml), demineralized water (Solubility test) [mL]	The amount of solvent to dissolve 1 g of the compounds (ml), ethanol (Solubility test) [mL]	The amount of solvent to dissolve 1 g of the compounds (ml), methanol (Solubility test) [mL]	IC50 [3] [nM]	Selectivity Index (L5178Y/CAPE) [3]	change of purity (in words) [1]
CO[C@@H]1[C@H](OC(=O)/C=C/c2ccc(Cl)c(NCCO)c2)CC[C@]2(CO2)[C@H]1[C@@]1(C)O[C@@H]1CC=C(C)C [Example 7, O-(4-chloro-3-(2-hydroxyethylamino)cinnamoyl)fumagillol]	more excellent chemical stability than TNP-470, CKD-732 and CKD-731	1.1	98.9	0.6	99.4	0.5	0.0017	31000	137	67	42	0.0065	4.77 × 10^6	
CO[C@@H]1[C@H](OC(=O)/C=C/c2ccc(NCCOCCO)cc2)CC[C@]2(CO2)[C@H]1[C@@]1(C)O[C@@H]1CC=C(C)C [Example 16, O-(4-(2-hydroxyethoxyethylamino)cinnamoyl)fumagillol]							0.0022	9490				0.041	2.31 × 10^5	
COc1ccc(/C=C/C(=O)O[C@@H]2CC[C@]3(CO3)[C@@H]([C@@]3(C)O[C@@H]3CC=C(C)C)[C@@H]2OC)cc1OCCO [Example 4, O-(3-(2-hydroxyethoxy)-4-methoxycinnamoyl)fumagillol]	more excellent chemical stability than TNP-470, CKD-732 and CKD-731	1.5	98.5	1.3	98.7	0.2	0.00376	27300	145	65	49	0.006	4.53 × 10^6	hardly showed a change of purity
CO[C@@H]1[C@H](OC(=O)/C=C/c2cccc(NCCOCCO)c2)CC[C@]2(CO2)[C@H]1[C@@]1(C)O[C@@H]1CC=C(C)C [Example 17, O-(3-(2-hydroxyethoxyethylamino)cinnamoyl)fumagillol]							0.00302	30700				0.049	6.26 × 10^5	
CO[C@@H]1[C@H](OC(=O)/C=C/c2ccc(OCCCCCCO)cc2)CC[C@]2(CO2)[C@H]1[C@@]1(C)O[C@@H]1CC=C(C)C [Example 25, O-(4-(6-hydroxyhexyloxy)cinnamoyl)fumagillol]							0.0015	21100				0.124	1.70 × 10^5	
CO[C@@H]1[C@H](OC(=O)/C=C/c2ccc(Cl)c(NCCOCCO)c2)CC[C@]2(CO2)[C@H]1[C@@]1(C)O[C@@H]1CC=C(C)C [Example 18, O-(4-chloro-3-(2-hydroxyethoxyethylamino)cinnamoyl)fumagillol]							0.0019	41900				0.045	9.31 × 10^5	
CO[C@@H]1[C@H](OC(=O)/C=C/c2ccc(OCCCCCO)cc2)CC[C@]2(CO2)[C@H]1[C@@]1(C)O[C@@H]1CC=C(C)C [Example 23, O-(4-(5-hydroxypentoxy)cinnamoyl)fumagillol]							0.0057	9250				0.0467	1.98 × 10^5	
CO[C@@H]1[C@H](OC(=O)/C=C/c2ccc(OCCCCCCO)c(C(F)(F)F)c2)CC[C@]2(CO2)[C@H]1[C@@]1(C)O[C@@H]1CC=C(C)C [Example 26, O-(3-trifluoromethyl-4-(6-hydroxyhexyloxy)cinnamoyl)fumagillol]							0.0019	9990				0.677	1.48 × 10^4	
CO[C@@H]1[C@H](OC(=O)/C=C/c2ccc(Oc3ccc(CO)cc3)cc2)CC[C@]2(CO2)[C@H]1[C@@]1(C)O[C@@H]1CC=C(C)C [Example 8, O-(4-(4-hydroxymethylphenoxy)cinnamoyl)fumagillol]							0.00456	60200				0.857	7.03 × 10^4	
COc1ccc(/C=C/C(=O)O[C@@H]2CC[C@]3(CO3)[C@@H]([C@@]3(C)O[C@@H]3CC=C(C)C)[C@@H]2OC)cc1Oc1ccc(CO)cc1 [Example 11, O-(3-(4-hydroxymethylphenoxy)-4-methoxycinnamoyl)fumagillol]							0.0036	75000				0.655	1.15 × 10^5	
CO[C@@H]1[C@H](OC(=O)/C=C/c2ccc(OCCCCCO)c([N+](=O)[O-])c2)CC[C@]2(CO2)[C@H]1[C@@]1(C)O[C@@H]1CC=C(C)C [Example 24, O-(3-nitro-4-(5-hydroxypentoxy)cinnamoyl)fumagillol]							0.0042	10400				0.0946	1.10 × 10^5	
CO[C@@H]1[C@H](OC(=O)/C=C/c2ccc(OCCOCCO)cc2)CC[C@]2(CO2)[C@H]1[C@@]1(C)O[C@@H]1CC=C(C)C [Example 12, O-(4-(2-hydroxyethoxyethoxy)cinnamoyl)fumagillol]	more excellent chemical stability than TNP-470, CKD-732 and CKD-731	0.6	99.4	0.5	99.5	0.1		20500	126	51	35	0.019	1.08 × 10^6	hardly showed a change of purity
COc1cc(/C=C/C(=O)O[C@@H]2CC[C@]3(CO3)[C@@H]([C@@]3(C)O[C@@H]3CC=C(C)C)[C@@H]2OC)cc(OC)c1Oc1ccc(CO)cc1 [Example 9, O-(3,5-dimethoxy-4-(4-hydroxymethylphenoxy)cinnamoyl)fumagillol]							0.00361	61200				0.811	7.54 × 10^4	

Source: patent publication US20100056623A1, “FUMAGILLOL DERIVATIVES OR METHOD FOR PREPARATION OF FUMAGILLOL DERIVATIVES, AND PHARMACEUTICAL COMPOSITIONS COMPRISING THE SAME” (CHONG KUN DANG PHARMACEUTICAL CORP., priority 2005, published 2010)
